Experiments:
[1] = i.g. (10 mg/kg)
[2] = test system: complement alternative pathway; test: Test of inhibitory effect on the complement alternative pathway (IBL alternative pathway kit, LPS-coated plate); format: biochemical, healthy volunteers; settings: inhibiting the alternative pathway; diluted serum, 30 min pretreatment, 1 h at 37°C
Method: The inhibitory effect of the compounds on the complement alternative pathway was detected using the IBL alternative pathway kit (COMPL AP330 RUO). Serum from healthy volunteers was collected and 1 portion was diluted with a buffer of 20 mM EDTA in gelatin (0.15 mM CaCl2, 141 mM NaCl, 4.5 mM MgCl2, 4.2 mM HEPES, and 0.1% gelatin at pH 7.4) to 50% (v/v), and 1 portion was diluted to 50% (v/v) with a buffer of 20 mM EGTA in gelatin. The compounds were prepared in DMSO to a working solution 100 times the final concentration. Before use, 50% of the above serum was diluted 1/18 with an AP diluent in the kit. 1 part of the compound working solution (v/v) or DMSO (positive control PC) was added to 99 parts of the diluted serum containing EGTA for pretreatment for 30 min, and 1 part of DMSO (v/v) was added to 99 parts of the diluted serum containing EDTA, as negative control (NC). The serum pretreated with the above compounds (or DMSO) was added at […] to an LPS-coated 96-well plate and incubated at 37°C for 1 h, and the plate was washed 3 times with washing solution in the kit, and the conjugated chromogenic substrate was added according to the instruction in the kit, and the absorbance was read at 405 nm with a microplate reader. The inhibitory activity of the compounds on alternative pathway was calculated using the following formula. […]

| SMILES | AUC0-24 h ([1]; rat plasma) [ng·h/mL] | Cmax ([1]; rat plasma) [ng/mL] | T1/2 ([1]; rat plasma) [h] | Tmax ([1]; rat plasma) [h] | F% ([1]; rats) [%] | IC50 [2] [nM] |
| --- | --- | --- | --- | --- | --- | --- |
| CCO[C@H]1CCN(Cc2c(OC)cc(C)c3[nH]ccc23)[C@H](c2ccc(C(=O)O)cc2)C1 [LNP023] | 9867 | 867 | 3.39 | 3.5 | 49 |  |
| COc1cc(C)c2[nH]ccc2c1CN1CC[C@@H](C2CC2)C[C@H]1c1ccc(C(=O)O)cc1 [Trifluoroacetate of compound 2] |  |  |  |  |  | < 200 |
| [2H]C([2H])([2H])Oc1cc(C)c2[nH]ccc2c1CN1CC[C@@H](C2CC2)C[C@H]1c1ccc(C(=O)O)cc1 [Trifluoroacetate of compound 1] |  |  |  |  |  | < 200 |

— patent publication EP4670719A1, “PHARMACEUTICAL COMPOSITION OF BENZO NITROGEN HETEROAROMATIC RING DERIVATIVE AND USE THEREOF IN MEDICINE” (Haisco Pharmaceutical Group Co., Ltd., priority 2023, dated 2024)
